# Measured values taken from PubChem BioAssay (NCI).
#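 Cells were grown in 96-well plates and exposed to each compound for 48 hours at five concentrations; endpoints were interpolated linearly between bracketing concentrations, or set to the highest concentration if not reached. Abbreviation: GI50, concentration required for 50% inhibition of growth. TGI is the concentration that stops growth completely.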
# Tests used:
# Assay in all cases: NCI tumour cell line growth inhibition, 48 h
# [1] = system: HT29 colon
# [2] = system: IGROV1 ovarian
# [3] = system: U251 CNS
# [4] = system: SNB-19 CNS
# [5] = system: NCI-H23 lung
# [6] = system: NCI-H460 lung
# [7] = system: SF-268 CNS
# [8] = system: 786-0 renal
# [9] = system: HCT-15 colon
# [10] = system: MDA-MB-435
# [11] = system: SW-620 colon
# [12] = system: RXF 393 renal
# [13] = system: CCRF-CEM leukemia
# [14] = system: MALME-3M melanoma
# [15] = system: OVCAR-5 ovarian
# [16] = system: LOX IMVI melanoma
# [17] = system: OVCAR-8 ovarian
# [18] = system: HCT-116 colon
# [19] = system: SK-MEL-5 melanoma
# [20] = system: SF-295 CNS
# [21] = system: SR leukemia
# [22] = system: PC-3 prostate
# [23] = system: SK-MEL-2 melanoma
# [24] = system: MOLT-4 leukemia
# [25] = system: NCI/ADR-RES ovarian
# [26] = system: M14 melanoma
# [27] = system: A498 renal
# [28] = system: TK-10 renal
# [29] = system: K-562 leukemia
# [30] = system: SF-539 CNS
# [31] = system: EKVX NSCLC
# [32] = system: UACC-62 melanoma
# [33] = system: OVCAR-4 ovarian
# [34] = system: BT-549 breast
# [35] = system: UO-31 renal
# [36] = system: NCI-H226 lung
# [37] = system: NCI-H522 lung
# [38] = system: UACC-257 melanoma
# [39] = system: A549 NSCLC
# [40] = system: ACHN renal
# [41] = system: SK-OV-3 ovarian
# [42] = system: DU-145 prostate
# [43] = system: HS 578T breast
# [44] = system: HOP-62 NSCLC
# [45] = system: HOP-92 NSCLC
# [46] = system: KM12 colon
# [47] = system: CAKI-1 renal
# [48] = system: OVCAR-3 ovarian
# [49] = system: HCC-2998 colon
# [50] = system: SNB-75 CNS
# [51] = system: MDA-MB-231 breast
# [52] = system: RPMI-8226 leukemia
# [53] = system: SN12C renal
# [54] = system: SK-MEL-28 melanoma
# [55] = system: COLO 205 colon
# [56] = system: HL-60(TB) leukemia
# [57] = system: MCF7 breast
smiles,measurement,setting,value
C=C1C(=O)O[C@H]2[C@H]1CC/C(COC(=O)NCCc1c[nH]c3ccc(Cl)cc13)=C\CC[C@@]1(C)O[C@@H]21,GI50,[1],1.46 µM
same,TGI,[1],3.24 µM
same,GI50,[2],1.55 µM
same,TGI,[2],3.11 µM
same,GI50,[3],1.8 µM
same,TGI,[3],3.31 µM
same,GI50,[4],3.98 µM
same,TGI,[4],14.8 µM
same,GI50,[5],1.79 µM
same,TGI,[5],3.49 µM
same,GI50,[6],2.2 µM
same,TGI,[6],4.64 µM
same,GI50,[7],1.77 µM
same,TGI,[7],3.37 µM
same,GI50,[8],1.38 µM
same,TGI,[8],2.79 µM
same,GI50,[9],1.16 µM
same,TGI,[9],2.66 µM
same,GI50,[10],1.52 µM
same,TGI,[10],3 µM
same,GI50,[11],1.82 µM
same,TGI,[11],4.26 µM
same,GI50,[12],1.54 µM
same,TGI,[12],2.94 µM
same,GI50,[13],0.583 µM
same,TGI,[13],3.07 µM
same,GI50,[14],1.78 µM
same,TGI,[14],3.44 µM
same,GI50,[15],1.97 µM
same,TGI,[15],4.19 µM
same,GI50,[16],1.28 µM
same,TGI,[16],2.68 µM
same,GI50,[17],1.6 µM
same,TGI,[17],3.26 µM
same,GI50,[18],1.56 µM
same,TGI,[18],2.97 µM
same,GI50,[19],1.83 µM
same,TGI,[19],3.33 µM
same,GI50,[20],6.53 µM
same,TGI,[20],20.3 µM
same,GI50,[21],0.944 µM
same,TGI,[21],5.95 µM
same,GI50,[22],1.72 µM
same,TGI,[22],3.35 µM
same,GI50,[23],1.63 µM
same,TGI,[23],3.15 µM
same,GI50,[24],1.71 µM
same,TGI,[24],5.27 µM
same,GI50,[25],2.74 µM
same,TGI,[25],9.77 µM
same,GI50,[26],1.61 µM
same,TGI,[26],3.13 µM
same,GI50,[27],3.39 µM
same,TGI,[27],14.7 µM
same,GI50,[28],1.59 µM
same,TGI,[28],2.97 µM
same,GI50,[29],1.1 µM
same,TGI,[29],5.95 µM
same,GI50,[30],1.75 µM
same,TGI,[30],3.32 µM
same,GI50,[31],1.73 µM
same,TGI,[31],3.53 µM
same,GI50,[32],1.61 µM
same,TGI,[32],3.07 µM
same,GI50,[33],1.5 µM
same,TGI,[33],3.05 µM
same,GI50,[34],1.44 µM
same,TGI,[34],2.99 µM
same,GI50,[35],1.31 µM
same,TGI,[35],2.59 µM
same,GI50,[36],1.92 µM
same,TGI,[36],3.64 µM
same,GI50,[37],1.69 µM
same,TGI,[37],3.35 µM
same,GI50,[38],1.72 µM
same,TGI,[38],3.19 µM
same,GI50,[39],2.28 µM
same,TGI,[39],5.84 µM
same,GI50,[40],1.54 µM
same,TGI,[40],2.88 µM
same,GI50,[41],13.2 µM
same,TGI,[41],26 µM
same,GI50,[42],1.61 µM
same,TGI,[42],3.25 µM
same,GI50,[43],3.21 µM
same,TGI,[43],9.76 µM
same,GI50,[44],2.18 µM
same,TGI,[44],5.48 µM
same,GI50,[45],1.4 µM
same,TGI,[45],2.84 µM
same,GI50,[46],2.64 µM
same,TGI,[46],7.32 µM
same,GI50,[47],1.48 µM
same,TGI,[47],2.82 µM
same,GI50,[48],1.77 µM
same,TGI,[48],3.83 µM
same,GI50,[49],1.96 µM
same,TGI,[49],4.03 µM
same,GI50,[50],1.33 µM
same,TGI,[50],2.97 µM
same,GI50,[51],1.84 µM
same,TGI,[51],3.44 µM
same,GI50,[52],1.2 µM
same,TGI,[52],4.21 µM
same,GI50,[53],1.64 µM
same,TGI,[53],3.17 µM
same,GI50,[54],1.79 µM
same,TGI,[54],3.43 µM
same,GI50,[55],1.85 µM
same,TGI,[55],3.59 µM
CC1C2=C(CCCC2=O)N(c2ccc(Cl)cc2)C2=C1C(=O)CCC2,TGI,[1],> 100 µM
same,TGI,[2],> 100 µM
same,TGI,[3],> 100 µM
same,TGI,[4],> 100 µM
same,TGI,[5],> 100 µM
same,TGI,[6],> 100 µM
same,TGI,[7],> 100 µM
same,TGI,[8],> 100 µM
same,TGI,[9],> 100 µM
same,TGI,[11],> 100 µM
same,TGI,[12],78.4 µM
same,TGI,[13],> 100 µM
same,TGI,[15],> 100 µM
same,TGI,[16],> 100 µM
same,TGI,[17],> 100 µM
same,TGI,[19],> 100 µM
same,TGI,[21],> 100 µM
same,TGI,[22],> 100 µM
same,TGI,[24],> 100 µM
same,TGI,[25],> 100 µM
same,TGI,[26],> 100 µM
same,TGI,[27],> 100 µM
same,TGI,[28],> 100 µM
same,TGI,[29],> 100 µM
same,TGI,[30],> 100 µM
same,TGI,[31],> 100 µM
same,TGI,[32],> 100 µM
same,TGI,[33],> 100 µM
same,TGI,[34],> 100 µM
same,TGI,[35],> 100 µM
same,TGI,[56],> 100 µM
same,TGI,[36],> 100 µM
same,TGI,[39],> 100 µM
same,TGI,[40],> 100 µM
same,TGI,[41],> 100 µM
same,TGI,[43],> 100 µM
same,TGI,[45],> 100 µM
same,TGI,[46],> 100 µM
same,TGI,[47],> 100 µM
same,TGI,[48],> 100 µM
same,TGI,[49],> 100 µM
same,TGI,[50],> 100 µM
same,TGI,[52],> 100 µM
same,TGI,[53],> 100 µM
same,TGI,[57],> 100 µM
same,TGI,[54],> 100 µM
